One data set has as its target human orexin-1 receptor (Homo sapiens (Human), UniProt O43613). Briefly: In vitro intracellular calcium measurements (FLIPR), antagonistic activity on orexin-1 receptor. In kind it is cell-based. As to conditions: read-out: IC50 OX1. As to the method:
(§1) In Vitro Assay: Intracellular Calcium Measurements:
(§2) Chinese hamster ovary (CHO) cells expressing the human orexin-1 receptor and the human orexin-2 receptor, respectively, are grown in culture medium (Ham F-12 with L-Glutamine) containing 300 μg/mL G418, 100 U/mL penicillin, 100 μg/mL streptomycin and 10% heat inactivated fetal calf serum (FCS). The cells are seeded at 20′000 cells/well into 384-well black clear bottom sterile plates (Greiner). The seeded plates are incubated overnight at 37° C. in 5% CO2.
(§3) Within the Fluorescent Imaging Plate Reader (FLIPR Tetra, Molecular Devices), antagonists are added to the plate in a volume of 10 μL/well, incubated for 120 min and finally 10 μL/well of agonist is added. Fluorescence is measured for each well at 1 second intervals, and the height of each fluorescence peak is compared to the height of the fluorescence peak induced by 3 nM orexin-A with vehicle in place of antagonist. […] Optimized conditions were achieved by adjustment of pipetting speed and cell splitting regime. The calculated IC50 values may fluctuate depending on the daily cellular assay performance. Fluctuations of this kind are known to those skilled in the art.
(A change in cytosolic calcium serves as a functional read-out for many receptors and channels.)

The target of the next data set is CYP3A4 (Homo sapiens (Human), UniProt P08684). In words: CYP3A4 inhibition assay (human liver microsomes, testosterone 6β-hydroxylation). As to conditions: read-out: CYP3A4 IC50, 40 μM testosterone. (In general: Liver microsomes are a subcellular fraction often used to study metabolism.)
The target of another data set is human orexin-2 receptor (Homo sapiens (Human), UniProt O43614). In words: In vitro intracellular calcium measurements (FLIPR), antagonistic activity on orexin-2 receptor. In kind it is cell-based. To be noted: read-out: IC50 OX2. The protocol:
as §1, §2, §3

Where [1] appears, read: CHO cells expressing human orexin-1 receptor, FLIPR, 3 nM orexin-A agonist, 120 min antagonist incubation, geometric mean if determined several times.
Where [2] appears, read: CHO cells expressing human orexin-2 receptor, FLIPR, 3 nM orexin-A agonist, 120 min antagonist incubation, geometric mean if determined several times.

Read-outs that look alike come from different tables or passages of the source.

human orexin-2 receptor, sequence (O43614 whole entry): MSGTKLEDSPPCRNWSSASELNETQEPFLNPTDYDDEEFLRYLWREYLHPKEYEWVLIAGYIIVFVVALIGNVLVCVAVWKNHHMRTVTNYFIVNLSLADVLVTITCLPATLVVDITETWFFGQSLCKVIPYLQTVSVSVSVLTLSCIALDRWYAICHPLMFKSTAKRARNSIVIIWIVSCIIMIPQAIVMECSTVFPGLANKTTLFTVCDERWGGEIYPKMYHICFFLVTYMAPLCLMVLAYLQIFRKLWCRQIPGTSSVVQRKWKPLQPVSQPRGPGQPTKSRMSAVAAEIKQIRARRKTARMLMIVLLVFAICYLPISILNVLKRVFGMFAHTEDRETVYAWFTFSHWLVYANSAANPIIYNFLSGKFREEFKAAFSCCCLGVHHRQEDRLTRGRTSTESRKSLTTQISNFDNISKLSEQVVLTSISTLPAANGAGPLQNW
CYP3A4, sequence (P08684 whole entry): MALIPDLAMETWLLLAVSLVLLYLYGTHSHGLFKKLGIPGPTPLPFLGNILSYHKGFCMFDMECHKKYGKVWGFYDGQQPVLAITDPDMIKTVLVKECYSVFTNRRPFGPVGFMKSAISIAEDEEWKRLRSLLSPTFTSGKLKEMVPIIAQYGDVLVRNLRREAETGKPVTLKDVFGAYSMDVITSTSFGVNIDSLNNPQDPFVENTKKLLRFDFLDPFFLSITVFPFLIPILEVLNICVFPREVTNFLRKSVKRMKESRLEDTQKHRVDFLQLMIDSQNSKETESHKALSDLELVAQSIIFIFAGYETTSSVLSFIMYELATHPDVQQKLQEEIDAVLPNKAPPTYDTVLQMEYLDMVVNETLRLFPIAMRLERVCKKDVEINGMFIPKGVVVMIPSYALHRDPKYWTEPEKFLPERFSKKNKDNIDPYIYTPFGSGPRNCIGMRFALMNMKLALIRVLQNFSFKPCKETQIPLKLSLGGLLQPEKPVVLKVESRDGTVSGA
human orexin-1 receptor, sequence (O43613 whole entry): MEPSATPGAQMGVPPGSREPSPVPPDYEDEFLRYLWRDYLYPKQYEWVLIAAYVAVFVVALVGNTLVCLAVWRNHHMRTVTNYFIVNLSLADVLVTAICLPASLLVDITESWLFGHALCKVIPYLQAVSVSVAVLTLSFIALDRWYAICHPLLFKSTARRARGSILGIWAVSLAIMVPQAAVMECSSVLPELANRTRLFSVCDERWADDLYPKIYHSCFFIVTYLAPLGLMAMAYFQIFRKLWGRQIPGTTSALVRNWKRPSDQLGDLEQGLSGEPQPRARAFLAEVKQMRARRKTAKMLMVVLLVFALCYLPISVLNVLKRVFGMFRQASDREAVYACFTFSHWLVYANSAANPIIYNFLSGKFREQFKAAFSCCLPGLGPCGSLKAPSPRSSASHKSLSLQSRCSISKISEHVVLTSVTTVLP
Procedure for CYP3A4: The CYP3A4 inhibition assay was performed using human liver microsomes and testosterone 6β-hydroxylation as a P450 isoform-specific marker. In a total volume of 150 μL, ^14C-testosterone at a final concentration of 40 μM in a 100 mM phosphate buffer (pH 7.4) was incubated in a 96-well plate with 0.3 mg/mL of human liver microsomes in an Eppendorf thermomixer at 37° C. and 400 rpm. […] The reaction was initiated by addition of 15 μL of the NADPH-regenerating system containing the glucose-6-phosphate dehydrogenase and terminated after 7 min with a 75 μL-aliquot of methanol. After centrifugation at 465 g and 4° C. for 20 min, a 50 μL-aliquot of the supernatant was submitted to HPLC according to the method described below. The total concentration of DMSO in the assay including controls without inhibitor was 1%.
Nicardipine was run in parallel as a reference inhibitor of CYP3A4 activity at final concentrations of 0, 0.1, 0.5, 1.0, 5.0, 10, 25, and 50 μM. Stock solutions thereof were prepared in DMSO.
The chromatographic separation of testosterone and 6β-hydroxytestosterone was achieved on a Phenomenex Luna C18(2) column (5 μm, 2.0×10 mm) at RT with a flow rate of 0.6 mL/min. Mobile phases consisted of 1% aqueous formic acid (phase A) and methanol (phase B) using a gradient method with 0.9 min total run time.
The quantification of 6β-hydroxytestosterone was carried out using a quadrupole mass spectrometer equipped with an ionspray interface operating in positive ion mode. The parameters of the mass detector were set as follows: capillary voltage 5 kV, auxiliary gas 40 psi, collision gas 3 mTorr, and transfer capillary temperature 420° C.

Usually IC50 stands for the midpoint of a concentration-inhibition curve. With `Cc1ccc(-n2nccn2)c(C(=O)N2CCOC[C@H]2Cc2cccc(-c3nccc(C)n3)c2)c1` [Example 39, {(R)-3-[3-(4-Methyl-pyrimidin-2-yl)-benzyl]-morpholin-4-yl}-(5-methyl-2-[1,2,3]triazol-2-yl-phenyl)-methanone], the IC50 at human orexin-1 receptor (setting [1]) was determined as 5 nM; at CYP3A4 it was 18000 nM; on human orexin-2 receptor (setting [2]), 231 nM.

With `Cc1ccc(C(=O)N2C[C@@H](C)OC[C@H]2Cc2cccc(-c3ncccn3)c2)c(-n2nccn2)c1` [Example 110, [(2R,5R)-2-Methyl-5-(3-pyrimidin-2-yl-benzyl)-morpholin-4-yl]-(4-methyl-2-[1,2,3]triazol-2-yl-phenyl)-methanone], the IC50 at human orexin-1 receptor (setting [1]) was 2 nM; at CYP3A4, above 50000 nM; on human orexin-2 receptor (setting [2]) it was 176 nM.

Turning to `Cc1cc(C(=O)N2CCOC[C@H]2Cc2cc(-c3ncon3)ccc2F)c(-n2nccn2)cc1C` [Example 179, (4,5-Dimethyl-2-[1,2,3]triazol-2-yl-phenyl)-[(R)-3-(2-fluoro-5-[1,2,4]oxadiazol-3-yl-benzyl)-morpholin-4-yl]-methanone], the IC50 on human orexin-1 receptor (setting [1]) was determined as 2 nM; on CYP3A4 it was 29000 nM; at human orexin-2 receptor (setting [2]), 34 nM.

As for `Cc1ccc(C(=O)N2C[C@@H](C)OC[C@H]2Cc2cccc(-c3ncccn3)c2)c(-n2nccn2)c1C` [Example 112, (3,4-Dimethyl-2-[1,2,3]triazol-2-yl-phenyl)-[(2R,5R)-2-methyl-5-(3-pyrimidin-2-yl-benzyl)-morpholin-4-yl]-methanone], the IC50 is above 50000 nM on CYP3A4 and 839 nM at human orexin-2 receptor (setting [2]).

`Cc1ccc(C(=O)N2CCO[C@H](C)[C@H]2Cc2cccc(-n3nccn3)c2)c(-n2nccn2)c1` (single isomer, unassigned) [Example 168, [(2R,3R)-2-Methyl-3-(3-[1,2,3]triazol-2-yl-benzyl)-morpholin-4-yl]-(4-methyl-2-[1,2,3]triazol-2-yl-phenyl)-methanone or [(2S,3R)-2-Methyl-3-(3-[1,2,3]triazol-2-yl-benzyl)-morpholin-4-yl]-(4-methyl-2-[1,2,3]triazol-2-yl-phenyl)-methanone]: on CYP3A4, the IC50 turned out to be 8500 nM.

Regarding `Cc1ccc(-n2nccn2)c(C(=O)N2CCOC[C@H]2Cc2cccc(-c3ncccn3)c2)c1F` [Example 49, (2-Fluoro-3-methyl-6-[1,2,3]triazol-2-yl-phenyl)-[(R)-3-(3-pyrimidin-2-yl-benzyl)-morpholin-4-yl]-methanone], the results for the IC50 at CYP3A4 and on human orexin-2 receptor (setting [2]) were 21000 nM and 582 nM, respectively.

As to `C[C@@H]1CN(C(=O)c2ccc(Cl)cc2-n2nccn2)[C@H](Cc2cc(-c3ncccn3)ccc2F)CO1` [Example 153, (4-Chloro-2-[1,2,3]triazol-2-yl-phenyl)-[(2R,5R)-5-(2-fluoro-5-pyrimidin-2-yl-benzyl)-2-methyl-morpholin-4-yl]-methanone], the IC50 on CYP3A4 is 18000 nM; at human orexin-2 receptor (setting [2]) it was 85 nM.

`O=C(c1ccccc1-n1nccn1)N1CCC[C@H]1Cc1cccc(-n2nccn2)c1` [Ref. 1]: the values for the IC50 at human orexin-1 receptor (setting [1]) and on CYP3A4 were 4 nM and 5500 nM, respectively.

Take `Cc1cccc(C(=O)N2CCOC[C@H]2Cc2cccc(-c3ncon3)c2)c1-n1nccn1` [Example 83, (3-Methyl-2-[1,2,3]triazol-2-yl-phenyl)-[(R)-3-(3-[1,2,4]oxadiazol-3-yl-benzyl)-morpholin-4-yl]-methanone]: the IC50 amounted to 7 nM at human orexin-1 receptor (setting [1]) and 25000 nM at CYP3A4.

As to `Cc1ccnc(-c2cccc(C[C@@H]3COCCN3C(=O)c3ccccc3-n3nccn3)c2)n1` [Example 40, {(R)-3-[3-(4-Methyl-pyrimidin-2-yl)-benzyl]-morpholin-4-yl}-(2-[1,2,3]triazol-2-yl-phenyl)-methanone], the IC50 came out at 34 nM at human orexin-1 receptor (setting [1]) and 762 nM on human orexin-2 receptor (setting [2]).

Take `Cc1ccc(C(=O)N2CCO[C@@H](C)[C@H]2Cc2cccc(-n3nccn3)c2)c(-n2nccn2)c1` (single isomer, unassigned) [Example 163, [(2S,3R)-2-Methyl-3-(3-[1,2,3]triazol-2-yl-benzyl)-morpholin-4-yl]-(4-methyl-2-[1,2,3]triazol-2-yl-phenyl)-methanone or [(2R,3R)-2-Methyl-3-(3-[1,2,3]triazol-2-yl-benzyl)-morpholin-4-yl]-(4-methyl-2-[1,2,3]triazol-2-yl-phenyl)-methanone]: the IC50 at CYP3A4 was 14000 nM.

In the case of `O=C(c1cc(F)c(F)cc1-n1nccn1)N1CCOC[C@H]1Cc1cccc(-c2ncon2)c1` [Example 80, (4,5-Difluoro-2-[1,2,3]triazol-2-yl-phenyl)-[(R)-3-(3-[1,2,4]oxadiazol-3-yl-benzyl)-morpholin-4-yl]-methanone], the results for the IC50 at human orexin-1 receptor (setting [1]) and at human orexin-2 receptor (setting [2]) were 28 nM and 645 nM, respectively.

With `Cc1ccc(-n2nccn2)c(C(=O)N2C[C@@H](C)OC[C@H]2Cc2cc(-n3ccnn3)ccc2F)c1` [Example 140, [(2R,5R)-5-(2-Fluoro-5-[1,2,3]triazol-1-yl-benzyl)-2-methyl-morpholin-4-yl]-(5-methyl-2-[1,2,3]triazol-2-yl-phenyl)-methanone], the values for the IC50 on human orexin-1 receptor (setting [1]) and on human orexin-2 receptor (setting [2]) were 27 nM and 1110 nM, respectively.

As for `Cc1ccc(-n2nccn2)c(C(=O)N2CCO[C@@H](C)[C@H]2Cc2cccc(-n3nccn3)c2)c1` (single isomer, unassigned) [Example 162, [(2S,3R)-2-Methyl-3-(3-[1,2,3]triazol-2-yl-benzyl)-morpholin-4-yl]-(5-methyl-2-[1,2,3]triazol-2-yl-phenyl)-methanone or [(2R,3R)-2-Methyl-3-(3-[1,2,3]triazol-2-yl-benzyl)-morpholin-4-yl]-(5-methyl-2-[1,2,3]triazol-2-yl-phenyl)-methanone], the figures for the IC50 on human orexin-1 receptor (setting [1]) and at human orexin-2 receptor (setting [2]) were 24 nM and 2530 nM, respectively.

Turning to `Cc1cccc(C(=O)N2CCO[C@@H](C)[C@H]2Cc2cccc(-n3nccn3)c2)c1-n1nccn1` (single isomer, unassigned) [Example 164, [(2S,3R)-2-Methyl-3-(3-[1,2,3]triazol-2-yl-benzyl)-morpholin-4-yl]-(3-methyl-2-[1,2,3]triazol-2-yl-phenyl)-methanone or [(2R,3R)-2-Methyl-3-(3-[1,2,3]triazol-2-yl-benzyl)-morpholin-4-yl]-(3-methyl-2-[1,2,3]triazol-2-yl-phenyl)-methanone], the IC50 was 29 nM at human orexin-1 receptor (setting [1]) and 4040 nM at human orexin-2 receptor (setting [2]).

As for `Cc1ccc(-n2nccn2)c(C(=O)N2CCOC[C@H]2Cc2cccc(-c3cccnc3)c2)c1` [Example 25, (5-Methyl-2-[1,2,3]triazol-2-yl-phenyl)-[(R)-3-(3-pyridin-3-yl-benzyl)-morpholin-4-yl]-methanone], the IC50 at human orexin-1 receptor (setting [1]) was found to be 11 nM; on human orexin-2 receptor (setting [2]) it was 1400 nM.

As for `COc1cc(C(=O)N2CCOC[C@H]2Cc2cccc(-n3nccn3)c2)c(-n2nccn2)cc1Cl` [Example 104, (4-Chloro-5-methoxy-2-[1,2,3]triazol-2-yl-phenyl)-[(R)-3-(3-[1,2,3]triazol-2-yl-benzyl)-morpholin-4-yl]-methanone], the IC50 at CYP3A4 amounted to 13000 nM; on human orexin-2 receptor (setting [2]), 117 nM.

Turning to `Cc1ccc(-n2nccn2)c(C(=O)N2CCOC[C@H]2Cc2cc(-c3ncccn3)ccc2F)c1` [Example 155, [(R)-3-(2-Fluoro-5-pyrimidin-2-yl-benzyl)-morpholin-4-yl]-(5-methyl-2-[1,2,3]triazol-2-yl-phenyl)-methanone], the values for the IC50 on CYP3A4 and at human orexin-2 receptor (setting [2]) were 30000 nM and 371 nM, respectively.

For the compound `Cc1ccc(C(=O)N2[C@H](Cc3cccc(-n4nccn4)c3)COC[C@H]2C)c(-n2nccn2)c1` [Example 69, [(3R,5R)-3-Methyl-5-(3-[1,2,3]triazol-2-yl-benzyl)-morpholin-4-yl]-(4-methyl-2-[1,2,3]triazol-2-yl-phenyl)-methanone], the IC50 at human orexin-1 receptor was 0.9 nM; at human orexin-2 receptor it was 314 nM.

For `Cc1ccc(C(=O)N2CCOC[C@H]2Cc2cc(-c3ncccn3)ccc2F)c(-n2nccn2)c1C` [Example 158, (3,4-Dimethyl-2-[1,2,3]triazol-2-yl-phenyl)-[(R)-3-(2-fluoro-5-pyrimidin-2-yl-benzyl)-morpholin-4-yl]-methanone], the results for the IC50 on CYP3A4 and at human orexin-2 receptor (setting [2]) were 40000 nM and 2260 nM, respectively.

`O=C(c1ccc(Cl)cc1-n1nccn1)N1CCOC[C@H]1Cc1cc(-c2ncccn2)ccc1F` [Example 160, (4-Chloro-2-[1,2,3]triazol-2-yl-phenyl)-[(R)-3-(2-fluoro-5-pyrimidin-2-yl-benzyl)-morpholin-4-yl]-methanone]: the IC50 on CYP3A4 was 17000 nM; on human orexin-2 receptor (setting [2]) it was 268 nM.

Take `O=C(c1ccccc1-n1nccn1)N1CCOC[C@H]1Cc1ccc(Cl)c(-c2ncccn2)c1` [Example 194, [(R)-3-(4-Chloro-3-pyrimidin-2-yl-benzyl)-morpholin-4-yl]-(2-[1,2,3]triazol-2-yl-phenyl)-methanone]: the IC50 at human orexin-1 receptor (setting [1]) was determined as 33 nM; at human orexin-2 receptor (setting [2]), 2260 nM.

As for `Cc1ccc(-n2nccn2)c(C(=O)N2C[C@@H](C)OC[C@H]2Cc2cc(-c3ncccn3)ccc2F)c1` [Example 147, [(2R,5R)-5-(2-Fluoro-5-pyrimidin-2-yl-benzyl)-2-methyl-morpholin-4-yl]-(5-methyl-2-[1,2,3]triazol-2-yl-phenyl)-methanone], the IC50 at CYP3A4 worked out at 28000 nM; on human orexin-2 receptor (setting [2]), 171 nM.

(Values after patent publication US9150566B2, “2-(1,2,3-triazol-2-yl)benzamide and 3-(1,2,3-triazol-2-YL)picolinamide derivatives as orexin receptor antagonists” (ACTELION PHARMACEUTICALS LTD., priority 2011, dated 2015).)
